This is an account of results in patent publication US10681909B2, “Herbicidal triazoles” (FMC Corporation, priority 2014, dated 2020).

Experiment [1] concerns ryegrass, Italian. Description: Test A preemergence. The format is in vivo, Lolium multiflorum. The following applies: 0 to 100 scale (0 no effect, 100 complete control). From the text:
(§1) Seeds of plant species selected from barnyardgrass (Echinochloa crus-galli), crabgrass, large (large crabgrass, Digitaria sanguinalis), kochia (Kochia scoparia), ragweed (common ragweed, Ambrosia elatior), foxtail, giant (giant foxtail, Setaria faberii), morningglory (Ipomoea spp.), pigweed (Amaranthus retroflexus), velvetleaf (Abutilon theophrasti), ryegrass, Italian (Italian ryegrass, Lolium multiflorum), wheat (Triticum aestivum), and corn (Zea mays) were planted into a blend of loam soil and sand and treated preemergence with a directed soil spray using test chemicals formulated in a non-phytotoxic solvent mixture which included a surfactant.
(§2) At the same time, plants selected from these crop and weed species and also blackgrass (Alopecurus myosuroides), and galium (catchweed bedstraw, Galium aparine), were planted in pots containing the same blend of loam soil and sand and treated with postemergence applications of test chemicals formulated in the same manner. Plants ranged in height from 2 to 10 cm and were in the one- to two-leaf stage for the postemergence treatment. Treated plants and untreated controls were maintained in a greenhouse for approximately 10 d, after which time all treated plants were compared to untreated controls and visually evaluated for injury. Plant response ratings, summarized in Table A, are based on a 0 to 100 scale where 0 is no effect and 100 is complete control. A dash (-) response means no test result.

A further experiment relates to ragweed. Description: Test A preemergence. The format is in vivo, Ambrosia elatior. The following applies: 0 to 100 scale (0 no effect, 100 complete control).
Source text: as §1, §2

The next experiment concerns foxtail, giant. Description: Test C preemergence. In kind it is in vivo, Setaria faberii. The note with it: for Plant response rating (scale of 0 to 100 where 0 is no effect and 100 is complete control): Foxtail, Giant, preemergence; for Foxtail, Giant plant response rating (0 to 100): Preemergence, visual rating after 13 to 15 d. An excerpt: (§3) Seeds of plant species selected from blackgrass (Alopecurus myosuroides), ryegrass, Italian (Italian ryegrass, Lolium multiflorum), wheat (winter wheat, Triticum aestivum), galium (catchweed bedstraw, Galium aparine), corn (Zea mays), crabgrass, large (large crabgrass, Digitaria sanguinalis), foxtail, giant, (giant foxtail, Setaria faberii), johnsongrass (Sorghum halepense), lambsquarters (Chenopodium album), morningglory (Ipomoea coccinea), nutsedge, yellow (yellow nutsedge, Cyperus esculentus), pigweed (Amaranthus retroflexus), ragweed (common ragweed, Ambrosia elatior), soybean (Glycine max), barnyardgrass (Echinochloa crus-galli), oilseed rape (Brassica napus), waterhemp (common waterhemp, Amaranthus rudis), and velvetleaf (Abutilon theophrasti) were planted into a blend of loam soil and sand and treated preemergence with test chemicals formulated in a non-phytotoxic solvent mixture which included a surfactant. At the same time, plants selected from these crop and weed species and also chickweed (common chickweed, Stellaria media), oat, wild (wild oat, Avena fatua), and kochia (Kochia scoparia), were planted in pots containing Sunshine Redi-Earth® planting medium comprising spaghnum peat moss, vermiculite, starter nutrients and dolomitic limestone and treated with postemergence applications of test chemicals formulated in the same manner. Plants ranged in height from 2 to 18 cm (1- to 4-leaf stage) for postemergence treatments. […] A dash (-) response means no test result.

In another experiment the test system is wheat (winter wheat). Description: Test C preemergence. In kind it is in vivo, Triticum aestivum. The note with it: for Wheat plant response rating (0 to 100): Preemergence, visual rating after 13 to 15 d; for Plant response rating (scale of 0 to 100 where 0 is no effect and 100 is complete control): Wheat, preemergence, 250 g ai/ha.
Source text: as §3

Experiment [2] concerns ryegrass, Italian. The experiment can be described thus: Test A postemergence. The format is in vivo, Lolium multiflorum. The note with it: 0 to 100 scale (0 no effect, 100 complete control), approx. 10 d.
Source text: as §1, §2

Molecules are shown by their SMILES.

For the molecule `COc1nc(-c2ccccc2)nn1Cc1ccnc(C(F)(F)F)c1` [Compound 32], the “Plant response rating, Ryegrass, Italian” value in the experiment with ryegrass, Italian [1] (125 g ai/ha) was determined as 40; with ryegrass, Italian [1] (500 g ai/ha), 60; in the experiment with ryegrass, Italian [2] (125 g ai/ha), 0; in the experiment with ryegrass, Italian [2] (500 g ai/ha), 50. Further, the “Plant response rating, Ragweed” value with ragweed (125 g ai/ha) amounted to 0; with ragweed (500 g ai/ha) it was 40. Further, the “Plant response rating (scale of 0 to 100 where 0 is no effect and 100 is complete control)” value with foxtail, giant (125 g ai/ha) was found to be 85; with foxtail, giant (250 g ai/ha), 100; in the experiment on wheat (winter wheat) it was 0. Moreover, the “Foxtail, Giant plant response rating (0 to 100)” value (“Foxtail … (0 to 100)” below) in the experiment on foxtail, giant (31 g ai/ha) worked out at 5; with foxtail, giant (62 g ai/ha), 70. Also, the “Wheat plant response rating (0 to 100)” value in the experiment on wheat (winter wheat) (31 g ai/ha) and with wheat (winter wheat) (62 g ai/ha) was 0 in each case.

With `CCCc1nc(-c2ccc(F)cc2)nn1Cc1ccnc(C(F)(F)F)c1` [Compound 6, 4-[[3-(4-fluorophenyl)-5-propyl-1H-1,2,4-triazol-1-yl]methyl]-2-(trifluoromethyl)pyridine], the “Plant response rating (scale of 0 to 100 where 0 is no effect and 100 is complete control)” value in the experiment on foxtail, giant (125 g ai/ha) is recorded as 100; with foxtail, giant (250 g ai/ha), 100; in the experiment with wheat (winter wheat) it was 60. Moreover, the “Foxtail … (0 to 100)” value in the experiment on foxtail, giant (31 g ai/ha) is reported as 100; in the experiment with foxtail, giant (62 g ai/ha), 100. Besides, the “Wheat plant response rating (0 to 100)” value in the experiment on wheat (winter wheat) (31 g ai/ha) is 0; with wheat (winter wheat) (62 g ai/ha) it was 10.

Turning to `COc1nc(-c2ccc(C(F)(F)F)cc2)nn1Cc1ccnc(C(F)(F)F)c1` [Compound 25], the “Plant response rating, Ryegrass, Italian” value is listed as 0 in the experiment on ryegrass, Italian [1] (31 g ai/ha); 50 in the experiment on ryegrass, Italian [1] (125 g ai/ha); 10 with ryegrass, Italian [2] (31 g ai/ha); 30 in the experiment with ryegrass, Italian [2] (125 g ai/ha). The “Plant response rating, Ragweed” value in the experiment on ragweed (31 g ai/ha) was found to be 10; in the experiment on ragweed (125 g ai/ha) it was 20.

As for `COc1nc(-c2ccc(F)cc2)nn1Cc1ccnc(C(F)(F)F)c1` [Compound 9, 4-[[3-(4-fluorophenyl)-5-methoxy-1H-1,2,4-triazol-1-yl]methyl]-2-(trifluoromethyl)pyridine], the “Plant response rating (scale of 0 to 100 where 0 is no effect and 100 is complete control)” value in the experiment with foxtail, giant (125 g ai/ha) amounted to 100; in the experiment with foxtail, giant (250 g ai/ha), 100; in the experiment on wheat (winter wheat) it was 25. Moreover, the “Foxtail … (0 to 100)” value came to 80 with foxtail, giant (31 g ai/ha) and 100 in the experiment with foxtail, giant (62 g ai/ha). The “Wheat plant response rating (0 to 100)” value with wheat (winter wheat) (31 g ai/ha) amounted to 0; with wheat (winter wheat) (62 g ai/ha) it was 5.

Regarding `CCCOc1nc(-c2ccccc2)nn1Cc1ccnc(C(F)(F)F)c1` [Compound 33], the “Plant response rating, Ryegrass, Italian” value in the experiment with ryegrass, Italian [1] (125 g ai/ha) turned out to be 30; in the experiment with ryegrass, Italian [1] (500 g ai/ha), 60; with ryegrass, Italian [2] (125 g ai/ha), 10; in the experiment on ryegrass, Italian [2] (500 g ai/ha), 40. Also, the “Plant response rating, Ragweed” value is listed as 20 with ragweed (125 g ai/ha) and 30 in the experiment on ragweed (500 g ai/ha).

Consider `CCOc1nc(-c2ccc(Cl)cc2)nn1Cc1ccnc(C(F)(F)F)c1` [Compound 26], for which the “Plant response rating, Ryegrass, Italian” value in the experiment on ryegrass, Italian [1] (31 g ai/ha) was determined as 40; with ryegrass, Italian [1] (125 g ai/ha), 100; in the experiment on ryegrass, Italian [2] (31 g ai/ha), 20; in the experiment on ryegrass, Italian [2] (125 g ai/ha), 50. Further, the figures for the “Plant response rating, Ragweed” value in the experiment with ragweed (31 g ai/ha) and in the experiment on ragweed (125 g ai/ha) were 60 and 90, respectively.
